# From ChEMBL document CHEMBL4725421, “SMARCA2/4 PROTAC for Targeted Protein Degradation and Cancer Therapy” (ACS Med Chem Lett, 2020)
# Columns and labels:
# Assay type in all cases: cell-based
# [1] = target: von Hippel-Lindau disease tumor suppressor/SWI/SNF-related matrix-associated actin-dependent regulator of chromatin subfamily A member 4 (Homo sapiens, UniProt P40337+P51532); assay: Protac activity at VHL/SMARCA4 in human A549 cells assessed as induction of SMARCA4 bromodomain degradation using anti-SMARCA4 antibody incubated for 18 hrs by WES capillary electrophoresis
# [2] = target: von Hippel-Lindau disease tumor suppressor/SWI/SNF-related matrix-associated actin-dependent regulator of chromatin subfamily A member 2 (Homo sapiens) (UniProt P51531+P40337); assay: Protac activity at VHL/SMARCA2 in human A549 cells assessed as induction of SMARCA2 bromodomain degradation using rabbit anti-SMARCA2 antibody incubated for 18 hrs by WES capillary electrophoresis relative to initial level
# [3] = target: von Hippel-Lindau disease tumor suppressor/SWI/SNF-related matrix-associated actin-dependent regulator of chromatin subfamily A member 2 (Homo sapiens, UniProt P40337+P51531); assay: Protac activity at VHL/SMARCA2 in human A549 cells assessed as induction of SMARCA2 bromodomain degradation using rabbit anti-SMARCA2 antibody incubated for 18 hrs by WES capillary electrophoresis
# [4] = target: von Hippel-Lindau disease tumor suppressor/SWI/SNF-related matrix-associated actin-dependent regulator of chromatin subfamily A member 4 (Homo sapiens) (UniProt P51532+P40337); assay: Protac activity at VHL/SMARCA4 in human A549 cells assessed as induction of SMARCA4 bromodomain degradation using anti-SMARCA4 antibody incubated for 18 hrs by WES capillary electrophoresis relative to initial level
# von Hippel-Lindau disease tumor suppressor/SWI/SNF-related matrix-associated actin-dependent regulator of chromatin subfamily A member 4 (Homo sapiens), sequence (P40337 whole entry, looked up): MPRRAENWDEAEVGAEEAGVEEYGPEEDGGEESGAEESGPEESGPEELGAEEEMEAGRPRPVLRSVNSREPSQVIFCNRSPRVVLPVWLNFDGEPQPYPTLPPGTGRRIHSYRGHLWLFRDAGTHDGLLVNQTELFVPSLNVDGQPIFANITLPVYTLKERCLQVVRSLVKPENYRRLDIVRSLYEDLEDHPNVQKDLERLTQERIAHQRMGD
# von Hippel-Lindau disease tumor suppressor/SWI/SNF-related matrix-associated actin-dependent regulator of chromatin subfamily A member 4 (Homo sapiens), sequence (P51532 whole entry, looked up): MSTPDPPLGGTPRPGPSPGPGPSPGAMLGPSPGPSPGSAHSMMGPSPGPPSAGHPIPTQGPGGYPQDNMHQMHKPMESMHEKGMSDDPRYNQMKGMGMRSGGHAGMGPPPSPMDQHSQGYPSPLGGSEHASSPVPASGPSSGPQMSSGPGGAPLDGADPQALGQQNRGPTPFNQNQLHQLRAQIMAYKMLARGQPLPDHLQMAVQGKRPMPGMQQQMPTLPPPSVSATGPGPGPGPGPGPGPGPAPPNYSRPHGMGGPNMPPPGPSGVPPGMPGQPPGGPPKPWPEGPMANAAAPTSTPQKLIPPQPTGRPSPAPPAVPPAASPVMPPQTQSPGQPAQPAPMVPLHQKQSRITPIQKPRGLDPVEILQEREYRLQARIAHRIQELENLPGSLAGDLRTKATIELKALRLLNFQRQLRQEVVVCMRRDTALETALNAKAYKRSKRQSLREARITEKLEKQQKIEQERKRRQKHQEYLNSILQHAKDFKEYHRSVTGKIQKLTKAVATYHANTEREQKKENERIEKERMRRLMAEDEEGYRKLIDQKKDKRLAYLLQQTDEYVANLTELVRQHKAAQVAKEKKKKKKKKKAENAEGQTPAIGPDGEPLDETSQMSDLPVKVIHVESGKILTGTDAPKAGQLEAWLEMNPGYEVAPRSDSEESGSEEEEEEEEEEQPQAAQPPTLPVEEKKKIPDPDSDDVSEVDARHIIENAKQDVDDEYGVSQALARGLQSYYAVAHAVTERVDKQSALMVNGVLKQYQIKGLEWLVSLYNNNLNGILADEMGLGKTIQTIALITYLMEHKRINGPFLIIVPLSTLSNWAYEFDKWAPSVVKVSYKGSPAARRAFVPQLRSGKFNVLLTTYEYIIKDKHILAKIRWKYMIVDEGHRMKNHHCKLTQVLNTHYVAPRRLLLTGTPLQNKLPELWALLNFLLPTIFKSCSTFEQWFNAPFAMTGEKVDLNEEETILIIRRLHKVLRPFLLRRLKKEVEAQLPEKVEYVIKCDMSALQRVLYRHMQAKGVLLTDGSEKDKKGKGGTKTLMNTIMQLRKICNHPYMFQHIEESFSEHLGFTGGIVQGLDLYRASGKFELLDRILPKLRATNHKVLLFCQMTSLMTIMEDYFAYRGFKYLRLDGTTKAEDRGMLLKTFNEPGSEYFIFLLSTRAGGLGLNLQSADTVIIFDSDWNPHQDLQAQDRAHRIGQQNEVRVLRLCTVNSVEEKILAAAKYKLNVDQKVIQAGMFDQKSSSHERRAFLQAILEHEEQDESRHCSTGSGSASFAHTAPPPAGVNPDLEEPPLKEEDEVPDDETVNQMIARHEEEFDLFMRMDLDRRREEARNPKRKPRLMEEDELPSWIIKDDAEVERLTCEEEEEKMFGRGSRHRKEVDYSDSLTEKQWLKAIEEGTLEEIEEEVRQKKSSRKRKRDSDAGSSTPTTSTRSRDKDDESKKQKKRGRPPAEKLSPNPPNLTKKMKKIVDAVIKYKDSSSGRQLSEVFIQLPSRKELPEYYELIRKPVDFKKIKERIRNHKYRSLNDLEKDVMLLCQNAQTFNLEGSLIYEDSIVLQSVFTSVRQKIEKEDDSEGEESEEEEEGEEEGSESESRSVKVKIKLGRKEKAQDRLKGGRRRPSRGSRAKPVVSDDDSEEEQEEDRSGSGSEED
# von Hippel-Lindau disease tumor suppressor/SWI/SNF-related matrix-associated actin-dependent regulator of chromatin subfamily A member 2 (Homo sapiens), sequence (P40337 whole entry, looked up): as the sequence (P40337 whole entry, looked up) above
# von Hippel-Lindau disease tumor suppressor/SWI/SNF-related matrix-associated actin-dependent regulator of chromatin subfamily A member 2 (Homo sapiens), sequence (P51531 whole entry, looked up): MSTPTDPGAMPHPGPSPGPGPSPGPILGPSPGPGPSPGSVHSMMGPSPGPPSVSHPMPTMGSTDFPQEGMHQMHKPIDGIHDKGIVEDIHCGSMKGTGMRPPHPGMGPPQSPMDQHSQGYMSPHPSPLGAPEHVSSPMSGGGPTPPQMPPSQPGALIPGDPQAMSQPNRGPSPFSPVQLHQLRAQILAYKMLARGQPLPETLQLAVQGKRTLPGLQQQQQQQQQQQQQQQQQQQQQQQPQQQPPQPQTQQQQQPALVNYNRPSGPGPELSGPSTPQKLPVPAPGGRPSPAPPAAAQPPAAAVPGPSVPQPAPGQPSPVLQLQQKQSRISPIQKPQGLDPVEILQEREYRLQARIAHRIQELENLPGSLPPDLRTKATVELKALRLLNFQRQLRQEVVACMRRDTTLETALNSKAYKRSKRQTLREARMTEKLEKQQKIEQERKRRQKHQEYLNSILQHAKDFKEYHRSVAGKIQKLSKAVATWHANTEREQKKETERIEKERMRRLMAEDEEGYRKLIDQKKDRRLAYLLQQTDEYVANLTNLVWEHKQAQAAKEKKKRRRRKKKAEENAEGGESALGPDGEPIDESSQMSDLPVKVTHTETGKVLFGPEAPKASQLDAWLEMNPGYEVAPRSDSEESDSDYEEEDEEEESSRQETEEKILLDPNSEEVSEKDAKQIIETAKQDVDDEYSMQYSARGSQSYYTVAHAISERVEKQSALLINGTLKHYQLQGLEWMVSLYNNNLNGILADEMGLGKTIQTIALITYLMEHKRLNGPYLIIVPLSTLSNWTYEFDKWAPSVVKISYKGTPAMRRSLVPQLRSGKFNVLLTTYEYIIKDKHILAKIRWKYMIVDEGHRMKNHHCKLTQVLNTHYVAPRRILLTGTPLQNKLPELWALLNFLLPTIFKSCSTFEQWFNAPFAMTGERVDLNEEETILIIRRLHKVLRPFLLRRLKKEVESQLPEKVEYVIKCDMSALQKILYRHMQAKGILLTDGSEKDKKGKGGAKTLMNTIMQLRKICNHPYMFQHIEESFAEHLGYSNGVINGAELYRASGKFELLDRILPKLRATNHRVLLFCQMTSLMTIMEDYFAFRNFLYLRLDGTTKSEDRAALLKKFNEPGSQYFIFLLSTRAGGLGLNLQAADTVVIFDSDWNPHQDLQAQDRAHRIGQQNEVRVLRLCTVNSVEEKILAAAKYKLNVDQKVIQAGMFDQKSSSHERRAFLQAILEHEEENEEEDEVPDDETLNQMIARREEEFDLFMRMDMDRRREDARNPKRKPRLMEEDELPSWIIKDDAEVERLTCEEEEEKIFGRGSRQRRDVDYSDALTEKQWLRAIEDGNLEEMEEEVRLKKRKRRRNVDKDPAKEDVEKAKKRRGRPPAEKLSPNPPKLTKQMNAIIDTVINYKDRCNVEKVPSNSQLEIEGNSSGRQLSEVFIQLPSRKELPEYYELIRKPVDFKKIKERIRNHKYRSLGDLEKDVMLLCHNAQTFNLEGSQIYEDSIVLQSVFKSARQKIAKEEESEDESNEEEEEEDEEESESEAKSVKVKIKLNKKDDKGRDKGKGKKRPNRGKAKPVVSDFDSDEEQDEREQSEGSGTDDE
# von Hippel-Lindau disease tumor suppressor/SWI/SNF-related matrix-associated actin-dependent regulator of chromatin subfamily A member 4, sequence (P51532 whole entry): as the sequence (P51532 whole entry, looked up) above
# von Hippel-Lindau disease tumor suppressor/SWI/SNF-related matrix-associated actin-dependent regulator of chromatin subfamily A member 4, sequence (P40337 whole entry): as the sequence (P40337 whole entry, looked up) above
# von Hippel-Lindau disease tumor suppressor/SWI/SNF-related matrix-associated actin-dependent regulator of chromatin subfamily A member 2, sequence (P51531 whole entry): as the sequence (P51531 whole entry, looked up) above
# von Hippel-Lindau disease tumor suppressor/SWI/SNF-related matrix-associated actin-dependent regulator of chromatin subfamily A member 2, sequence (P40337 whole entry): as the sequence (P40337 whole entry, looked up) above
Compound,EC50 [1],Emax [2],EC50 [3],Emax [4]
Cc1ncsc1-c1ccc(CNC(=O)[C@@H]2C[C@@H](O)CN2C(=O)[C@@H](NC(=O)C2(F)CC2)C(C)(C)C)c(OCCc2ccc(OCCN3CCN(c4cc(-c5ccccc5O)nnc4N)CC3)cc2)c1,26 nM,99%,41 nM,99%
Cc1ncsc1-c1ccc(CNC(=O)[C@@H]2C[C@@H](O)CN2C(=O)[C@@H](NC(=O)C2(F)CC2)C(C)(C)C)c(OCCCOc2ccc(CN3CCN(c4cc(-c5ccccc5O)nnc4N)CC3)cc2)c1,16 nM,99%,26 nM,100%
Cc1ncsc1-c1ccc(CNC(=O)[C@@H]2C[C@@H](O)CN2C(=O)[C@@H](NC(=O)C2(F)CC2)C(C)(C)C)c(OCCOc2ccc(CN3CCN(c4cc(-c5ccccc5O)nnc4N)CC3)cc2)c1,16 nM,98%,12 nM,97%

# Further lines, results first:
EC50 [1],Emax [2],EC50 [3],Emax [4],Compound
117 nM,91%,67 nM,93%,Cc1ncsc1-c1ccc(CNC(=O)[C@@H]2C[C@@H](O)CN2C(=O)[C@@H](NC(=O)C2(F)CC2)C(C)(C)C)c(OCCc2ccc(CN3CCN(c4cc(-c5ccccc5O)nnc4N)CC3)cc2)c1
33 nM,95%,55 nM,95%,Cc1ncsc1-c1ccc(CNC(=O)[C@@H]2C[C@@H](O)CN2C(=O)[C@@H](NC(=O)C2(F)CC2)C(C)(C)C)c(OCCc2ccc(CN3CCN(c4cc(-c5ccccc5O)nnc4N)CC3)c(F)c2)c1
25 nM,90%,58 nM,92%,Cc1ncsc1-c1ccc(CNC(=O)[C@@H]2C[C@@H](O)CN2C(=O)[C@@H](NC(=O)C2(F)CC2)C(C)(C)C)c(OCCCc2ccc(CN3CCN(c4cc(-c5ccccc5O)nnc4N)CC3)cc2)c1
